According to PubChem BioAssay AID248 (DTP/NCI, 2004):
“And” between values parts separate entries of the source, which are not always exact repeats. Identical values can stand only once. Toxic doses and inconclusive results are not listed. Cut-off read from the data, not from the text of the source: active = T/C of 150% or more; inactive = T/C below 125%.

Test system: L1210 leukemia ip in BDF1 mice, survival T/C
Assay: NCI In Vivo Anticancer Drug Screen. Data for tumor model L1210 Leukemia (intraperitoneal) in B6D2F1 (BDF1) mice
Conditions: endpoint: mean survival time, higher = longer survival
Outline: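 In this screen, tumor-bearing mice given compound are compared to those given vehicle, and their survival values are reported as a treated-to-control quotient.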

[1] = dose: 100.0 mg/kg/injection, schedule: Q01DX009 (ip), vehicle: saline
[2] = dose: 200.0 mg/kg/injection, schedule: Q01DX009 (ip), vehicle: saline
[3] = dose: 400.0 mg/kg/injection, schedule: Q01DX009 (ip), vehicle: saline
[4] = dose: 100.0 mg/kg/injection, schedule: Q01DX001 (ip), vehicle: saline
[5] = dose: 200.0 mg/kg/injection, schedule: Q01DX001 (ip), vehicle: saline
[6] = dose: 100.0 mg/kg/injection, schedule: Q01DX009 (ip), vehicle: Klucel (hydroxypropylcellulose) (HPC)
[7] = dose: 200.0 mg/kg/injection, schedule: Q01DX009 (ip), vehicle: Klucel (hydroxypropylcellulose) (HPC)
[8] = dose: 100.0 mg/kg/injection, schedule: Q01DX001 (ip), vehicle: carboxymethylcellulose (CMC)
[9] = dose: 200.0 mg/kg/injection, schedule: Q01DX001 (ip), vehicle: carboxymethylcellulose (CMC)
[10] = dose: 400.0 mg/kg/injection, schedule: Q01DX001 (ip), vehicle: carboxymethylcellulose (CMC)
[11] = dose: 100.0 mg/kg/injection, schedule: Q04DX003 (ip), vehicle: Klucel (hydroxypropylcellulose) (HPC)
[12] = dose: 200.0 mg/kg/injection, schedule: Q04DX003 (ip), vehicle: Klucel (hydroxypropylcellulose) (HPC)
[13] = dose: 400.0 mg/kg/injection, schedule: Q04DX003 (ip), vehicle: Klucel (hydroxypropylcellulose) (HPC)
[14] = dose: 100.0 mg/kg/injection, schedule: Q04DX002 (ip), vehicle: saline with Tween-80
[15] = dose: 200.0 mg/kg/injection, schedule: Q04DX002 (ip), vehicle: saline with Tween-80
[16] = dose: 400.0 mg/kg/injection, schedule: Q04DX002 (ip), vehicle: saline with Tween-80
[17] = dose: 100.0 mg/kg/injection, schedule: Q01DX009 (ip), vehicle: saline with Tween-80
[18] = dose: 200.0 mg/kg/injection, schedule: Q01DX009 (ip), vehicle: saline with Tween-80
[19] = dose: 75.0 mg/kg/injection, schedule: Q01DX001 (ip), vehicle: other
[20] = dose: 150.0 mg/kg/injection, schedule: Q01DX001 (ip), vehicle: other
[21] = dose: 300.0 mg/kg/injection, schedule: Q01DX001 (ip), vehicle: other

Measured: T/C

Nc1ccc(Nc2ccccc2)c(S(=O)(=O)O)c1
inactive: [1] 107 % of control | dose: 100.0 mg/kg/injection, schedule: Q04DX003 (ip), vehicle: saline 105 % of control | [2] 107 % of control | dose: 200.0 mg/kg/injection, schedule: Q04DX003 (ip), vehicle: saline 92 % of control | [3] 110 % of control | dose: 400.0 mg/kg/injection, schedule: Q04DX003 (ip), vehicle: saline 95 % of control

CCCSc1ncnc2c1ncn2COC(=O)NC
inactive: [4] 97 % of control | [5] 108 % of control | dose: 400.0 mg/kg/injection, schedule: Q01DX001 (ip), vehicle: saline 108 % of control

O=C(c1cccc(F)c1)C(F)(F)F
inactive: [6] 96 % of control | [7] 104 % of control | dose: 300.0 mg/kg/injection, schedule: Q01DX009 (ip), vehicle: Klucel (hydroxypropylcellulose) (HPC) 93 % of control

O=C(N/N=C\c1ccccc1O)c1ccco1
inactive: [8] 98 % of control | [9] 95 % of control | [10] 95 % of control

CCOc1ccc(NC(=O)Nc2ccccc2OC)cc1
inactive: [6] 97 % of control | [11] 94 % of control | [7] 95 % of control | [12] 92 % of control | dose: 400.0 mg/kg/injection, schedule: Q01DX009 (ip), vehicle: Klucel (hydroxypropylcellulose) (HPC) 101 % of control | [13] 97 % of control

Cc1cc(N=Nc2ccc([N+](=O)[O-])cc2)ccc1O
inactive: dose: 100.0 mg/kg/injection, schedule: Q01DX001 (ip), vehicle: Klucel (hydroxypropylcellulose) (HPC) 98 % of control | dose: 200.0 mg/kg/injection, schedule: Q01DX001 (ip), vehicle: Klucel (hydroxypropylcellulose) (HPC) 95 % of control

CN/N=C1\CCC2C3CCc4cc(O)ccc4C3CCC12C (stereo not given)
inactive: [6] 95 % of control | [7] 89 % of control

Cc1cccc(NC(=S)Nc2ccc(-c3ccc(NC(=S)Nc4cccc(C)c4)cc3)cc2)c1
inactive: dose: 100.0 mg/kg/injection, schedule: Q01DX009 (ip), vehicle: other 104 % of control | dose: 200.0 mg/kg/injection, schedule: Q01DX009 (ip), vehicle: other 106 % of control | dose: 400.0 mg/kg/injection, schedule: Q01DX009 (ip), vehicle: other 96 % of control

CCNC(=S)OC1CCC2(C)C(=CCC3C2CCC2(C)C(C(C)CCC(CC)C(C)C)CCC32)C1 (stereo not given)
inactive: [14] 87 % of control | [15] 87 % of control | [16] 94 % of control

O=C(O)CCI
inactive: dose: 50.0 mg/kg/injection, schedule: Q01DX009 (ip), vehicle: saline 98 % of control | [1] 90 % of control | dose: 100.0 mg/kg/injection, schedule: Q04DX003 (ip), vehicle: other 102 % of control | [2] 100 % of control | dose: 200.0 mg/kg/injection, schedule: Q04DX003 (ip), vehicle: other 96 % of control

COn1c(=O)[nH]c2ccccc2c1=O
inactive: [17] 94 % of control | [18] 91 % of control | dose: 400.0 mg/kg/injection, schedule: Q01DX009 (ip), vehicle: saline with Tween-80 97 % of control

S=c1[nH]n2c(=S)[nH]nc2s1
inactive: [11] 101 % of control | [12] 103 % of control | [13] 93 % of control

O=C(Nc1ccc(S(=O)(=O)F)cc1)/C(=C\c1ccc([N+](=O)[O-])cc1)c1cccc(Cl)c1
inactive: dose: 100.0 mg/kg/injection, schedule: Q04DX002 (ip), vehicle: Klucel (hydroxypropylcellulose) (HPC) 94 % of control | dose: 200.0 mg/kg/injection, schedule: Q04DX002 (ip), vehicle: Klucel (hydroxypropylcellulose) (HPC) 105 % of control | dose: 400.0 mg/kg/injection, schedule: Q04DX002 (ip), vehicle: Klucel (hydroxypropylcellulose) (HPC) 105 % of control

O=C1/C(=C/c2ccccc2)SC(=S)N1C1OC(CO)C(O)C(O)C1O (stereo not given)
inactive: dose: 12.5 mg/kg/injection, schedule: Q01DX005 (ip), vehicle: other 98 % of control | dose: 25.0 mg/kg/injection, schedule: Q01DX005 (ip), vehicle: other 98 % of control | dose: 50.0 mg/kg/injection, schedule: Q01DX005 (ip), vehicle: other 106 % of control | dose: 100.0 mg/kg/injection, schedule: Q01DX005 (ip), vehicle: other 101 % of control | dose: 200.0 mg/kg/injection, schedule: Q01DX005 (ip), vehicle: other 98 % of control

O=S1(=O)CC(CBr)=C(CBr)C1
inactive: dose: 15.0 mg/kg/injection, schedule: Q01DX001 (ip), vehicle: carboxymethylcellulose (CMC) 94 % of control | dose: 30.0 mg/kg/injection, schedule: Q01DX001 (ip), vehicle: carboxymethylcellulose (CMC) 93 % of control | dose: 60.0 mg/kg/injection, schedule: Q01DX001 (ip), vehicle: carboxymethylcellulose (CMC) 100 % of control

CCN(CC)C(C)(O)CN (stereo not given)
inactive: [4] 98 % of control | [5] 103 % of control

Cc1nc2ccccc2cc1CO
inactive: dose: 100.0 mg/kg/injection, schedule: Q04DX003 (ip), vehicle: saline with Tween-80 105 % of control | dose: 200.0 mg/kg/injection, schedule: Q04DX003 (ip), vehicle: saline with Tween-80 102 % of control | dose: 400.0 mg/kg/injection, schedule: Q04DX003 (ip), vehicle: saline with Tween-80 102 % of control

CC(C)(C)NC(N)=O
inactive: [1] 100 % of control | [2] 97 % of control | [3] 100 % of control

O=C(c1ccccc1)c1ccc(Br)s1
inactive: [11] 96 % of control | [12] 97 % of control | [13] 94 % of control

Cc1cc(O)[nH]c(=O)c1
inactive: dose: 5.0 mg/kg/injection, schedule: Q01DX001 (ip), vehicle: saline 105 % of control | dose: 10.0 mg/kg/injection, schedule: Q01DX001 (ip), vehicle: saline 105 % of control | dose: 20.0 mg/kg/injection, schedule: Q01DX001 (ip), vehicle: saline 100 % of control | dose: 40.0 mg/kg/injection, schedule: Q01DX001 (ip), vehicle: saline 105 % of control | dose: 80.0 mg/kg/injection, schedule: Q01DX001 (ip), vehicle: saline 100 % of control

CC(=O)Nc1ccccc1C(C#N)Cc1ccccc1 (stereo not given)
inactive: [19] 96 % of control | [20] 101 % of control | [21] 101 % of control

O=C1C(=O)c2ccccc2C(O)=C1CCCCCCCCCC[S+](CCO)CCO
inactive: dose: 100.0 mg/kg/injection, schedule: Q01DX001 (ip), vehicle: other 104 % of control | dose: 200.0 mg/kg/injection, schedule: Q01DX001 (ip), vehicle: other 101 % of control

c1ccc2nc3nc4ccccc4nc3nc2c1
inactive: dose: 5.0 mg/kg/injection, schedule: Q04DX002 (ip), vehicle: gum acacia 90 % of control | dose: 10.0 mg/kg/injection, schedule: Q04DX002 (ip), vehicle: gum acacia 93 % of control | dose: 20.0 mg/kg/injection, schedule: Q04DX002 (ip), vehicle: gum acacia 93 % of control and 94 % of control | [19] 102 % of control | [14] 106 % of control | [20] 98 % of control | [15] 100 % of control | [21] 103 % of control | [16] 91 % of control

COC(=O)C(CC/C(=N\NC(N)=O)c1ccccc1)C(=O)OC
inactive: dose: 50.0 mg/kg/injection, schedule: Q01DX009 (ip), vehicle: saline with Tween-80 98 % of control | [17] 98 % of control | [18] 91 % of control

CC1(C)N=C(c2ccccc2)C2C(c3ccc([N+](=O)[O-])cc3)N21 (stereo not given)
inactive: dose: 50.0 mg/kg/injection, schedule: Q01DX001 (ip), vehicle: carboxymethylcellulose (CMC) 98 % of control | [8] 88 % of control | [9] 93 % of control | [10] 91 % of control
